{
  "source": "patent US7341992B2",
  "about": "“Lectin-like domain of thrombomodulin and its therapeutic use” (Vlaams Interuniversitair Instituut Voor Biotechnologie VZW, priority 2001, dated 2008)",
  "tested_on": "TM^wt/wt endothelial cells",
  "test": "Static adhesion assay: murine PMNs on endothelial cells from TM^wt/wt mice",
  "assay_type": "cell-based",
  "settings": "addition of PPACK to exclude thrombin effect",
  "excerpt": "Table 8: Static adhesion assay. […] This is a representative experiment performed 3 times, on 3 different clones each. For each experiment, 5 wells were used for each condition, and adherent leukocytes in 15 microscopic fields were counted.\nSince TM expression is not restricted to vascular endothelial cells, but is also synthesized by other cells including neutrophils and monocytes, we considered the possibility that the increase in leukocyte efflux into the lungs might be a result of TM alterations on either the neutrophils and/or the vascular endothelium. fEND.5 cells are an established PymT transformed murine endothelial cell line that expresses full-length, functional TM on the cell surface. […] Adhesion and rolling of neutrophils to transformed endothelial cells derived from the TM^wt/wt and TM^LeD/LeD mice were consequently evaluated. […] This was determined not to be an endothelial cell clone-specific artifact, as 3 different clones of endothelial cells were evaluated with similar results. There was also a significant 3-fold increase in PMN and lymphocyte adhesion to resting TM^LeD/LeD endothelial cells as compared to TM^wt/wt endothelial cells (Table 8). […]\nNeutrophils and lymphocytes were isolated from bone marrow according to the method of Lowell and Berton ^35. Each population was assessed to be over 95% pure by microscopic analysis after Wright staining. […]",
  "data": [
    {"smiles": "NC(N)=NCCC[C@H](NC(=O)[C@@H]1CCCN1C(=O)[C@H](N)Cc1ccccc1)C(=O)CCl", "note": "[PPACK]", "values": [
      {"measurement": "effect on the results of the adhesion assays", "result": "no effect"}
    ]}
  ]
}
